{"source": "ChEMBL document CHEMBL5696441", "about": "(Nat Chem Biol, 2011)", "key": {"[1]": {"target": "Atypical kinase COQ8A, mitochondrial (Homo sapiens) (UniProt Q8NI60)", "sequence (Q8NI60 163-647 limits assumed)": "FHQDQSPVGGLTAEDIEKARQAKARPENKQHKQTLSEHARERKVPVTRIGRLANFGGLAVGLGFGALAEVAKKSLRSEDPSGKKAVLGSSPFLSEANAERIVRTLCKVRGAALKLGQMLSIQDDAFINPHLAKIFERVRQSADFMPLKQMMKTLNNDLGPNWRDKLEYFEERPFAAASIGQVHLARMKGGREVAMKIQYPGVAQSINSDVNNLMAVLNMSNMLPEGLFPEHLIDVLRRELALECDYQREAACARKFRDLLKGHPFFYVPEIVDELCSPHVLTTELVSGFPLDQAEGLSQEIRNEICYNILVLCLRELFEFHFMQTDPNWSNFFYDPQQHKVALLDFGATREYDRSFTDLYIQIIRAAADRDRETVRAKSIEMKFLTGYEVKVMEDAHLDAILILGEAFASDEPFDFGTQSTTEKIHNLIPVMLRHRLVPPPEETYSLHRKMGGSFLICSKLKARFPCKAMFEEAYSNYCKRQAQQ", "assay": "Inhibition of ADCK3 (unknown origin) assessed as remaining activity at 1 uM by Kinome scan method relative to control"}, "[2]": {"target": "RAC-gamma serine/threonine-protein kinase (Homo sapiens) (UniProt Q9Y243)", "sequence (Q9Y243 whole entry)": "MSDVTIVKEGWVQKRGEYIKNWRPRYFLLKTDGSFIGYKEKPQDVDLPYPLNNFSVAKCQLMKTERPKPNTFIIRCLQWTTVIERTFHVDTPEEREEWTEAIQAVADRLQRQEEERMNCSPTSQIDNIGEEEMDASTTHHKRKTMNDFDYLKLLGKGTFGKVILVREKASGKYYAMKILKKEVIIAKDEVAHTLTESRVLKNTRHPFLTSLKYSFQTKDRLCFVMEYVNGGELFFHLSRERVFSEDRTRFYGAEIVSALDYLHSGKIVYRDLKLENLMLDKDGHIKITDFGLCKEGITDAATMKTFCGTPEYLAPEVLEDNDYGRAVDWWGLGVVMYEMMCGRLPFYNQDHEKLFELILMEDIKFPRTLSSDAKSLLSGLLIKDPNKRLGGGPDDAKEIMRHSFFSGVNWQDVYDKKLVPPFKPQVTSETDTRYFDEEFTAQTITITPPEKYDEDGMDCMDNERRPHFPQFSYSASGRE", "assay": "Inhibition of AKT3 (unknown origin) assessed as remaining activity at 1 uM by Kinome scan method relative to control"}, "[3]": {"target": "Ankyrin repeat and protein kinase domain-containing protein 1 (Homo sapiens) (UniProt Q8NFD2)", "assay": "Inhibition of ANKK1 (unknown origin) assessed as remaining activity at 1 uM by Kinome scan method relative to control"}, "[4]": {"target": "Epithelial discoidin domain-containing receptor 1 (Homo sapiens) (UniProt Q08345)", "assay": "Inhibition of DDR1 (unknown origin) assessed as remaining activity at 1 uM by Kinome scan method relative to control"}, "[5]": {"target": "Insulin receptor-related protein (Homo sapiens) (UniProt P14616)", "sequence (P14616 27-742 limits assumed)": "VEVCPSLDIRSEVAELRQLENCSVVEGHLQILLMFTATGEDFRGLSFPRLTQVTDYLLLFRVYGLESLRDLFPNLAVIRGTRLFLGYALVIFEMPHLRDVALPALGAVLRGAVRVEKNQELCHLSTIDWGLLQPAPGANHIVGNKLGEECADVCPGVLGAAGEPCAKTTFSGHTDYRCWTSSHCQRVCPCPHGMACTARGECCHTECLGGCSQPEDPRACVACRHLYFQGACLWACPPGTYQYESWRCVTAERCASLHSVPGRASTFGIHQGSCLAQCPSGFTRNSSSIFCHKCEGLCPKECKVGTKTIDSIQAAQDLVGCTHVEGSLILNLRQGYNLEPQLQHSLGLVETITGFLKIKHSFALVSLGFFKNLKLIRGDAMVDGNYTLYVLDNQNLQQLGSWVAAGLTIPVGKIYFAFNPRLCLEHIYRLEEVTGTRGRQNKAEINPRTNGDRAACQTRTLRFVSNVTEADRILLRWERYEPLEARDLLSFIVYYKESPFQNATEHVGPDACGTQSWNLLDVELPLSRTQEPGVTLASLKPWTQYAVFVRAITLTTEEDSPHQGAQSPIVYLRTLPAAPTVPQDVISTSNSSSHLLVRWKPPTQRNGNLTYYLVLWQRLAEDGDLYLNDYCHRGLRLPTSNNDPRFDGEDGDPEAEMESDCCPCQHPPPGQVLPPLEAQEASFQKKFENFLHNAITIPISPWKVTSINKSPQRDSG", "sequence (P14616 747-1297 limits assumed)": "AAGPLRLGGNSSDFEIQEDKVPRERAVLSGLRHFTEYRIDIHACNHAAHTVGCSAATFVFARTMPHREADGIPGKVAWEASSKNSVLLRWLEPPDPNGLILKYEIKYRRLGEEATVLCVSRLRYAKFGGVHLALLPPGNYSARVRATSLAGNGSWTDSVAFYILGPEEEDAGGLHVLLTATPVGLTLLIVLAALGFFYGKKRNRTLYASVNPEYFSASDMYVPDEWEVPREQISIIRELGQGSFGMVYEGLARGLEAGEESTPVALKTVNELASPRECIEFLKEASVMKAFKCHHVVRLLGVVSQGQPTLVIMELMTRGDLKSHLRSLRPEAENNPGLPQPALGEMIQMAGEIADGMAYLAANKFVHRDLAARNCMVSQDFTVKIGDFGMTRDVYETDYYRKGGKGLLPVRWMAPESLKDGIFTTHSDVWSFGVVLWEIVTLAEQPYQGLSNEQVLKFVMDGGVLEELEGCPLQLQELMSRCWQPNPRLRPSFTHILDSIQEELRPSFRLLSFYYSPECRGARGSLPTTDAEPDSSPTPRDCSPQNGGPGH", "assay": "Inhibition of INSRR (unknown origin) assessed as remaining activity at 1 uM by Kinome scan method relative to control"}, "[6]": {"target": "Mitogen-activated protein kinase kinase kinase 4 (Homo sapiens) (UniProt Q9Y6R4)", "sequence (Q9Y6R4 whole entry)": "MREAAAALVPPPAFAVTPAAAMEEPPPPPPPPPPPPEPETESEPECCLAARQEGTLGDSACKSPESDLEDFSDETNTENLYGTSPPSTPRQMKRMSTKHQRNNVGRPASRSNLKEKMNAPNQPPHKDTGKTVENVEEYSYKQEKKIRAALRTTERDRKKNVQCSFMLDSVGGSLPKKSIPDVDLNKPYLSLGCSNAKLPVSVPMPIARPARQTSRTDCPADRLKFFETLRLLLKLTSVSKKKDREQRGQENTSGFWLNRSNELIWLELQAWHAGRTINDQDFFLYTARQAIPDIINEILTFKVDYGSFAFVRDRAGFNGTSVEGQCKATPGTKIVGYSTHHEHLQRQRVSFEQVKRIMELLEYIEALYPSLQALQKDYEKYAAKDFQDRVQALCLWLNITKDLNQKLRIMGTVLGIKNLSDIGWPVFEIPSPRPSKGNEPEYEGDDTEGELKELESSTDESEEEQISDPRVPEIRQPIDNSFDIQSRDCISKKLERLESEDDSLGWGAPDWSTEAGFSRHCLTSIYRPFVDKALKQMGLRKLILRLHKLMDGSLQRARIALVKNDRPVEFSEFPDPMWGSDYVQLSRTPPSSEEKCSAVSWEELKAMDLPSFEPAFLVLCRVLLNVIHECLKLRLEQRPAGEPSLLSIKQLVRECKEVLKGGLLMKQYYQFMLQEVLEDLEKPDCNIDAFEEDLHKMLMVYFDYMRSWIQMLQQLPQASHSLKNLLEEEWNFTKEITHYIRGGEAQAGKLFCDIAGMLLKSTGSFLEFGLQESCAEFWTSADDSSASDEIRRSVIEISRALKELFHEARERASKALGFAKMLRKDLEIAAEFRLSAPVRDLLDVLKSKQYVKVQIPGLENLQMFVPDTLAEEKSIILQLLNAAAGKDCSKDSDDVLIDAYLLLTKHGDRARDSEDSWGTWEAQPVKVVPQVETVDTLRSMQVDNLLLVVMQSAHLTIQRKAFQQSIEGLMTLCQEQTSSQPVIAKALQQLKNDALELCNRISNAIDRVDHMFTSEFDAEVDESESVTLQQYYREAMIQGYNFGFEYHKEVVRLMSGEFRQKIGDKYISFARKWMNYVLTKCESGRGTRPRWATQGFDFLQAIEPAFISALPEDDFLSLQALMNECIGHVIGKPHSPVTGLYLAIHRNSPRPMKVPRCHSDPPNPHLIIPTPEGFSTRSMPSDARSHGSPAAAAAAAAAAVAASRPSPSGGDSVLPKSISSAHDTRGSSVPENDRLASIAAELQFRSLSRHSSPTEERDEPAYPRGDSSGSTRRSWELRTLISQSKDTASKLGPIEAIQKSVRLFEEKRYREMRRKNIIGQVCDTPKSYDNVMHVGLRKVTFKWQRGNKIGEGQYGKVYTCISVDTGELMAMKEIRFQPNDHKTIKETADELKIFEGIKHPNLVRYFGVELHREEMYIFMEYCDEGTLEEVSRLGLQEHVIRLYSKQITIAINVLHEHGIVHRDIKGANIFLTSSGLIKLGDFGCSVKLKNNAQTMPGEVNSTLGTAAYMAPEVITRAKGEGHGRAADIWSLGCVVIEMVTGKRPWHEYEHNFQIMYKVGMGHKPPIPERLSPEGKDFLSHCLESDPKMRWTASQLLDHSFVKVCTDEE", "assay": "Inhibition of MAP3K4 (unknown origin) assessed as remaining activity at 1 uM by Kinome scan method relative to control"}, "[7]": {"target": "Serine/threonine-protein kinase MARK1 (Homo sapiens) (UniProt Q9P0L2)", "sequence (Q9P0L2 whole entry, looked up)": "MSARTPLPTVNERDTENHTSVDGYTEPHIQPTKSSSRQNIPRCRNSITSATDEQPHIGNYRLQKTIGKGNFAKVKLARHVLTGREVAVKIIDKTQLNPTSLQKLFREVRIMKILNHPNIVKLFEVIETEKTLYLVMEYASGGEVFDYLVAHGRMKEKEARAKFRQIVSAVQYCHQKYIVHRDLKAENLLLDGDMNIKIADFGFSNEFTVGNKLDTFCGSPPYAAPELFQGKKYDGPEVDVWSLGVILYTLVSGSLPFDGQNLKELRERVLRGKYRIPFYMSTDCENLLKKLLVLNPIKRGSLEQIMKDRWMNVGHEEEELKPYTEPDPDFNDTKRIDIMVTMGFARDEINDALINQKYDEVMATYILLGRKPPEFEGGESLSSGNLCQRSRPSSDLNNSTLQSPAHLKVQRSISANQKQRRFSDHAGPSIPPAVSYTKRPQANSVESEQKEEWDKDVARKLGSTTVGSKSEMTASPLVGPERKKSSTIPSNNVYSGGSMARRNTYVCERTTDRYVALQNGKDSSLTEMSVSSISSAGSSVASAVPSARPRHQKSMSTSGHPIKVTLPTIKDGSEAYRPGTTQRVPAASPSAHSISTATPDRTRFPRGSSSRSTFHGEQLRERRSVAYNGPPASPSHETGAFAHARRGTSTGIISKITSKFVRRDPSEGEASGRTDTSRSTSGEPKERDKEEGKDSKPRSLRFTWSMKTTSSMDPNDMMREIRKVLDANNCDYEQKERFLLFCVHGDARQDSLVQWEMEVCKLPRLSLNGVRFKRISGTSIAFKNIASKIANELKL", "assay": "Inhibition of MARK1 (unknown origin) assessed as remaining activity at 1 uM by Kinome scan method relative to control"}, "[8]": {"target": "Serine/threonine-protein kinase 38 (Homo sapiens) (UniProt Q15208)", "assay": "Inhibition of NDR1 (unknown origin) assessed as remaining activity at 1 uM by Kinome scan method relative to control"}, "[9]": {"target": "T1, Serine/threonine-protein kinase Nek1 (Homo sapiens) (UniProt Q96PY6)", "T1 sequence (whole entry)": "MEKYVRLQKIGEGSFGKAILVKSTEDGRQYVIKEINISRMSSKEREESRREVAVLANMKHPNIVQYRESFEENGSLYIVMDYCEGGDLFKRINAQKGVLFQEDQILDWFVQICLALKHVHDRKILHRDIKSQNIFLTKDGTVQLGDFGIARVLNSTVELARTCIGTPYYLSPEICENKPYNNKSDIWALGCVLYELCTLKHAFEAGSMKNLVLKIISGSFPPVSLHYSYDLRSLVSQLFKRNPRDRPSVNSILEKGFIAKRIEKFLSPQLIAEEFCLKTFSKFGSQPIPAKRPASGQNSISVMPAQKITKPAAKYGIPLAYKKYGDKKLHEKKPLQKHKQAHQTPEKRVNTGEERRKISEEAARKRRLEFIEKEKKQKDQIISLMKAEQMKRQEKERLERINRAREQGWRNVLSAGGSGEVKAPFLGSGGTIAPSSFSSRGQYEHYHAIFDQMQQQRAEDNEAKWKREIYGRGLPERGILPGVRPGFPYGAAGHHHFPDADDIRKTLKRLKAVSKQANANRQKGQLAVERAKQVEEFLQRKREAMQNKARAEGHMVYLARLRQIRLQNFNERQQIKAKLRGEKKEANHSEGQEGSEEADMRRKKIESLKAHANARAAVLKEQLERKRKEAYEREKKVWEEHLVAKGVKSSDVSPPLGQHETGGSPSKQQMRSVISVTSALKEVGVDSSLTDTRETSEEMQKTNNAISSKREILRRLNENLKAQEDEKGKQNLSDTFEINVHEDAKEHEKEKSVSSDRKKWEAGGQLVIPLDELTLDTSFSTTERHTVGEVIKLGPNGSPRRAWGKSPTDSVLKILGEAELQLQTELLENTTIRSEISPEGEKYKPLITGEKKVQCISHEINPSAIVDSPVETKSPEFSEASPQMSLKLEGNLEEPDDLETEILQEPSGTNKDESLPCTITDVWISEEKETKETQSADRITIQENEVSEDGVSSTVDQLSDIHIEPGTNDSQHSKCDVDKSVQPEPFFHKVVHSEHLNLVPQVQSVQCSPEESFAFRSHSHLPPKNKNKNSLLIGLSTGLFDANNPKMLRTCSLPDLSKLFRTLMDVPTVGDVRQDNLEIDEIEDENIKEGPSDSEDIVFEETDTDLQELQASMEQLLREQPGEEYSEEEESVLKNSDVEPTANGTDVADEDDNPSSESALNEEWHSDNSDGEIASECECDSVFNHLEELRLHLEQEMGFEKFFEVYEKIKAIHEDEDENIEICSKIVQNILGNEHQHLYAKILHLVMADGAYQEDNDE", "assay": "Inhibition of NEK1 (unknown origin) assessed as remaining activity at 1 uM by Kinome scan method relative to control"}, "[10]": {"target": "Phosphatidylinositol 4,5-bisphosphate 3-kinase catalytic subunit beta isoform (Homo sapiens) (UniProt P42338)", "assay": "Inhibition of PIK3CB (unknown origin) assessed as remaining activity at 1 uM by Kinome scan method relative to control"}, "[11]": {"target": "T2, cGMP-dependent protein kinase 1 (Homo sapiens) (UniProt Q13976)", "T2 sequence (whole entry)": "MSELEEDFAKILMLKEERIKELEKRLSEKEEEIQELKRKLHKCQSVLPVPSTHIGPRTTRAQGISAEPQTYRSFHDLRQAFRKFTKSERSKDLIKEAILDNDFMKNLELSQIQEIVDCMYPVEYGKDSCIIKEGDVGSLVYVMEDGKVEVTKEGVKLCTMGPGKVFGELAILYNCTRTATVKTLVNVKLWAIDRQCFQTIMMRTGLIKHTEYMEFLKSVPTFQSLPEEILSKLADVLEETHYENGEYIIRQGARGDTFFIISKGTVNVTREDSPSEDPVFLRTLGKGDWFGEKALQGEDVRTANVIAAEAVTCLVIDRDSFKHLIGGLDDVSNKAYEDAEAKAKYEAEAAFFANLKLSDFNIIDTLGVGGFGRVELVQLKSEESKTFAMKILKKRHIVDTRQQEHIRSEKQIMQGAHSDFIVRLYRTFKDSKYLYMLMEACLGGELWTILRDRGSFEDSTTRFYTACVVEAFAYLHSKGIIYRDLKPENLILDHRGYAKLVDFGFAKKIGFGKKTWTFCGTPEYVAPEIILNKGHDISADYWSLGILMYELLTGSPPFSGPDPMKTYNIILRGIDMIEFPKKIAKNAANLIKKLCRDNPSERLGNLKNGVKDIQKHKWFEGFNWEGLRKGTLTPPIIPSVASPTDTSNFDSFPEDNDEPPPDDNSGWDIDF", "assay": "Inhibition of PRKG1 (unknown origin) assessed as remaining activity at 1 uM by Kinome scan method relative to control"}, "[12]": {"target": "Myosin light chain kinase family member 4 (Homo sapiens) (UniProt Q86YV6)", "sequence (Q86YV6 whole entry)": "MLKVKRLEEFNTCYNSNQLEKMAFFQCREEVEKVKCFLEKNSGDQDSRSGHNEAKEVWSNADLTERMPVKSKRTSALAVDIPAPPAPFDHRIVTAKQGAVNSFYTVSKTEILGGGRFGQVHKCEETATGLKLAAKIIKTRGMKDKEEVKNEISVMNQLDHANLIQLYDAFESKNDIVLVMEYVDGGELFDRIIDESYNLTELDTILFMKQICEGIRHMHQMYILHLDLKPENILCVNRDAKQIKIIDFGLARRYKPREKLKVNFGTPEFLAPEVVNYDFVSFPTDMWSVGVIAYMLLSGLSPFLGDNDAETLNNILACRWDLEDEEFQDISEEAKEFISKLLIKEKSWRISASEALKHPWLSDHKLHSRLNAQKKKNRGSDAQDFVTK", "assay": "Inhibition of SgK085 (unknown origin) assessed as remaining activity at 1 uM by Kinome scan method relative to control"}}, "data": [{"compound": "Nc1ccccc1Nc1ccc2c(c1)CCc1ccccc1C2=O", "values": [{"measurement": "Activity", "setting": "[1]", "result": 78, "unit": "%"}, {"measurement": "Activity", "setting": "[2]", "result": 88, "unit": "%"}, {"measurement": "Activity", "setting": "[3]", "result": 96, "unit": "%"}, {"measurement": "Activity", "setting": "[4]", "result": 80, "unit": "%"}, {"measurement": "Activity", "setting": "[5]", "result": 88, "unit": "%"}, {"measurement": "Activity", "setting": "[6]", "result": 82, "unit": "%"}, {"measurement": "Activity", "setting": "[7]", "result": 88, "unit": "%"}, {"measurement": "Activity", "setting": "[8]", "result": 81, "unit": "%"}, {"measurement": "Activity", "setting": "[9]", "result": 90, "unit": "%"}, {"measurement": "Activity", "setting": "[10]", "result": 88, "unit": "%"}, {"measurement": "Activity", "setting": "[11]", "result": 88, "unit": "%"}, {"measurement": "Activity", "setting": "[12]", "result": 97, "unit": "%"}]}, {"compound": "O=C1c2ccc(Nc3ccc(F)cc3F)cc2CCc2ccc(OC[C@H](O)CO)cc21", "note": "[Skepinone-L]", "values": [{"measurement": "Activity", "setting": "[1]", "result": 88, "unit": "%"}, {"measurement": "Activity", "setting": "[2]", "result": 90, "unit": "%"}, {"measurement": "Activity", "setting": "[3]", "result": 99, "unit": "%"}, {"measurement": "Activity", "setting": "[4]", "result": 85, "unit": "%"}, {"measurement": "Activity", "setting": "[5]", "result": 100, "unit": "%"}, {"measurement": "Activity", "setting": "[6]", "result": 85, "unit": "%"}, {"measurement": "Activity", "setting": "[7]", "result": 93, "unit": "%"}, {"measurement": "Activity", "setting": "[8]", "result": 87, "unit": "%"}, {"measurement": "Activity", "setting": "[9]", "result": 91, "unit": "%"}, {"measurement": "Activity", "setting": "[10]", "result": 96, "unit": "%"}, {"measurement": "Activity", "setting": "[11]", "result": 100, "unit": "%"}, {"measurement": "Activity", "setting": "[12]", "result": 100, "unit": "%"}]}]}
